The values that follow come from patent publication US20260209228A1 (Elanco Tiergesundheit AG, priority 2018, published 2026).

Test [1] relates to D. immitis microfilariae. Briefly: Dog heart worm microfilariae motility inhibition (Example A). The format is cell-based. Particulars: read-out: EC50 (motility inhibition).
In test [2] the test system is H. contortus (H.c.) larvae. Briefly: Ruminant gastrointestinal H. contortus larvae motility inhibition (Example B). The note with it: Haemonchus contortus, read-out: EC50 (motility inhibition).
Description: H.c. eggs isolated from lamb fecal matter are allowed to hatch overnight. Test compounds are diluted in DMSO and added to a 96-well plate containing appropriate media. H.c. larvae are added to each well and plates are incubated for the desired time(s). Motility is assessed using an LCD camera imaging system. Percent motility inhibition values are generated relative to the average of the DMSO-only wells.

A value given as a limit tells only on which side of the number the result lay.

Regarding `C[C@H]1COc2ccccc2[C@H]1NC(=O)c1cnc2c(-c3cc(Cl)cc(Cl)c3)nccc2c1N(C)C` (racemic) [Example 1.39, 8-(3,5-dichlorophenyl)-4-(dimethylamino)-N-[rac-(3R,4S)-3-methylchroman-4-yl]-1,7-naphthyridine-3-carboxamide], the EC50 was under 0.1 µg/mL in test [1] and under 1 µg/mL in test [2]. For `CN(C)c1c(C(=O)N[C@H]2CCOc3ccccc32)cnc2c(-c3cc(Cl)cc(Cl)c3)nccc12` [Example 1.1, N-[(4S)-chroman-4-yl]-8-(3,5-dichlorophenyl)-4-(dimethylamino)-1,7-naphthyridine-3-carboxamide], the EC50 in test [1] is under 0.1 µg/mL; in test [2], under 1 µg/mL. On to `CN(C)c1c(C(=O)N[C@H]2CCOc3ccccc32)cnc2c(N3CCc4cc(Cl)ccc43)nccc12` [Example 1.7, 8-(5-chloroindolin-1-yl)-N-[(4S)-chroman-4-yl]-4-(dimethylamino)-1,7-naphthyridine-3-carboxamide], for which, in test [2], the EC50 was under 1 µg/mL. For the compound `O=C(N[C@H]1CCOc2ccccc21)c1cnc2c(-c3cc(Cl)cc(Cl)c3)nccc2c1N1CCOCC1` [Example 1.9, N-[(4S)-chroman-4-yl]-8-(3,5-dichlorophenyl)-4-morpholino-1,7-naphthyridine-3-carboxamide], the EC50 in test [1] was under 0.1 µg/mL; in test [2], under 1 µg/mL. Regarding `Nc1c(C(=O)N[C@H]2CCOc3ccccc32)cnc2c(-c3cc(Cl)cc(Cl)c3)nccc12` [Example 1.12, 4-amino-N-[(4S)-chroman-4-yl]-8-(3,5-dichlorophenyl)-1,7-naphthyridine-3-carboxamide], the results for the EC50 in test [1] and in test [2] were under 0.1 µg/mL and under 1 µg/mL, respectively. As for `CN(C)c1c(C(=O)N[C@H]2CCOc3cc(F)ccc32)cnc2c(-c3cc(Cl)cc(Cl)c3)nccc12` [Example 1.17, 8-(3,5-dichlorophenyl)-4-(dimethylamino)-N-[(4S)-7-fluorochroman-4-yl]-1,7-naphthyridine-3-carboxamide], the EC50 in test [1] is under 0.1 µg/mL; in test [2] it was under 1 µg/mL. In the same order, the values of `O=C(N[C@H]1CCOc2ccccc21)c1cnc2c(-c3cc(Cl)cc(Cl)c3)nccc2c1C1CC1` [Example 1.20, N-[(4S)-chroman-4-yl]-4-cyclopropyl-8-(3,5-dichlorophenyl)-1,7-naphthyridine-3-carboxamide] are under 0.1 µg/mL and under 1 µg/mL.

`CN(C)c1c(C(=O)N[C@H]2CCc3ccccc32)cnc2c(-c3cc(Cl)cc(Cl)c3)nccc12` [Example 1.21, 8-(3,5-dichlorophenyl)-4-(dimethylamino)-N-[(1S)-indan-1-yl]-1,7-naphthyridine-3-carboxamide]: the EC50 is under 0.1 µg/mL in test [1] and under 1 µg/mL in test [2]. For the compound `COc1ccc(F)c(-c2nccc3c(N(C)C)c(C(=O)N[C@H]4CCOc5ccccc54)cnc23)c1F` [Example 1.24, N-[(4S)-chroman-4-yl]-8-(2,6-difluoro-3-methoxyphenyl)-4-(dimethylamino)-1,7-naphthyridine-3-carboxamide], the values for the EC50 in test [1] and in test [2] were under 0.1 µg/mL and under 1 µg/mL, respectively.

As for `O=C(N[C@H]1CCOc2ccccc21)c1cnc2c(-c3cc(Cl)cc(Cl)c3)nccc2c1Cl` [Example 1.30, 4-chloro-N-[(4S)-chroman-4-yl]-8-(3,5-dichlorophenyl)-1,7-naphthyridine-3-carboxamide], the EC50 in test [1] was under 0.1 µg/mL. In the case of `CON(C)c1c(C(=O)N[C@H]2CCOc3ccccc32)cnc2c(-c3cc(Cl)cc(Cl)c3)nccc12` [Example 1.31, N-[(4S)-chroman-4-yl]-8-(3,5-dichlorophenyl)-4-[methoxy(methyl)amino]-1,7-naphthyridine-3-carboxamide], the EC50 is under 0.1 µg/mL in test [1] and under 1 µg/mL in test [2]. For `CN(C)c1c(C(=O)N[C@H]2CCCc3ccccc32)cnc2c(-c3cc(Cl)cc(Cl)c3)nccc12` [Example 1.32, 8-(3,5-dichlorophenyl)-4-(dimethylamino)-N-[(1S)-tetralin-1-yl]-1,7-naphthyridine-3-carboxamide], the results for the EC50 in test [1] and in test [2] were under 0.1 µg/mL and under 1 µg/mL, respectively. Consider `COc1c(C(=O)N[C@H]2CCOc3ccccc32)cnc2c(-c3cc(Cl)cc(Cl)c3)nccc12` [Example 1.33, N-[(4S)-chroman-4-yl]-8-(3,5-dichlorophenyl)-4-methoxy-1,7-naphthyridine-3-carboxamide], for which the EC50 in test [1] is under 0.1 µg/mL; in test [2], under 1 µg/mL. On to `O=C1CN(c2c(C(=O)N[C@H]3CCOc4ccccc43)cnc3c(-c4cc(Cl)cc(Cl)c4)nccc23)CN1` [Example 1.37, N-[(4S)-chroman-4-yl]-8-(3,5-dichlorophenyl)-4-(4-oxoimidazolidin-1-yl)-1,7-naphthyridine-3-carboxamide], for which the EC50 in test [1] was under 0.1 µg/mL; in test [2], under 1 µg/mL. In the same order, the values of `N#CCc1c(C(=O)N[C@H]2CCOc3ccccc32)cnc2c(-c3cc(Cl)cc(Cl)c3)nccc12` [Example 1.38, N-[(4S)-chroman-4-yl]-4-(cyanomethyl)-8-(3,5-dichlorophenyl)-1,7-naphthyridine-3-carboxamide] are under 0.1 µg/mL and under 1 µg/mL.

Consider `CC(C)c1c(C(=O)N[C@H]2CCOc3ccccc32)cnc2c(-c3cc(Cl)cc(Cl)c3)nccc12` [Example 1.42, N-[(4S)-chroman-4-yl]-8-(3,5-dichlorophenyl)-4-isopropyl-1,7-naphthyridine-3-carboxamide], for which the EC50 in test [1] was under 0.1 µg/mL; in test [2], under 1 µg/mL.

As for `Cc1ccc2c(c1)OCC[C@@H]2NC(=O)c1cnc2c(-c3cc(Cl)cc(Cl)c3)nccc2c1N(C)C` [Example 1.45, 8-(3,5-dichlorophenyl)-4-(dimethylamino)-N-[(4S)-7-methylchroman-4-yl]-1,7-naphthyridine-3-carboxamide], the results for the EC50 in test [1] and in test [2] were under 0.1 µg/mL and under 1 µg/mL, respectively. For the compound `CN(C)c1c(C(=O)N[C@@H]2CCOc3ccsc32)cnc2c(-c3cc(Cl)cc(Cl)c3)nccc12` [Example 1.47, 8-(3,5-dichlorophenyl)-N-[(7R)-6,7-dihydro-5H-thieno[3,2-b]pyran-7-yl]-4-(dimethylamino)-1,7-naphthyridine-3-carboxamide], the EC50 in test [1] was under 0.1 µg/mL; in test [2], under 1 µg/mL.

Regarding `CN(C)c1c(C(=O)N[C@H]2CCOc3ccccc32)cnc2c(-c3cc(F)cc(F)c3)nccc12` [Example 1.48, N-[(4S)-chroman-4-yl]-8-(3,5-difluorophenyl)-4-(dimethylamino)-1,7-naphthyridine-3-carboxamide], the concentration giving a half-maximal response (EC50) in test [1] was under 0.1 µg/mL; in test [2], under 1 µg/mL. In the case of `CN(C)c1c(C(=O)N[C@H]2CCOc3ccccc32)cnc2c(-c3ccccc3F)nccc12` [Example 1.49, N-[(4S)-chroman-4-yl]-8-(2-fluorophenyl)-4-(dimethylamino)-1,7-naphthyridine-3-carboxamide], the 50% effective concentration (EC50) in test [1] is under 0.1 µg/mL. In the case of `CN(C)c1c(C(=O)N[C@H]2CCOc3ccccc32)cnc2c(-c3cc(F)c(F)c(F)c3)nccc12` [Example 1.51, N-[(4S)-chroman-4-yl]-4-(dimethylamino)-8-(3,4,5-trifluorophenyl)-1,7-naphthyridine-3-carboxamide], the figures for the EC50 in test [1] and in test [2] were under 0.1 µg/mL and under 1 µg/mL, respectively. On to `CN(C)c1c(C(=O)N[C@H]2CCOc3ccccc32)cnc2c(-c3cc(C(F)(F)F)cc(C(F)(F)F)c3)nccc12` [Example 1.52, 8-[3,5-bis(trifluoromethyl)phenyl]-N-[(4S)-chroman-4-yl]-4-(dimethylamino)-1,7-naphthyridine-3-carboxamide], for which, in test [1], the EC50 was under 0.1 µg/mL. `CN(C)c1c(C(=O)N[C@H]2CCOc3ccccc32)cnc2c(-c3ccc(Cl)cc3Cl)nccc12` [Example 1.54, N-[(4S)-chroman-4-yl]-8-(2,4-dichlorophenyl)-4-(dimethylamino)-1,7-naphthyridine-3-carboxamide]: the EC50 in test [1] was under 0.1 µg/mL; in test [2] it was under 1 µg/mL.

Turning to `CN(C)c1c(C(=O)N[C@H]2CCOc3ccccc32)cnc2c(-c3cccc(Cl)c3Cl)nccc12` [Example 1.55, N-[(4S)-chroman-4-yl]-8-(2,3-dichlorophenyl)-4-(dimethylamino)-1,7-naphthyridine-3-carboxamide], the half-maximal effective concentration (EC50) in test [1] is under 0.1 µg/mL; in test [2] it was under 1 µg/mL. Turning to `CN(C)c1c(C(=O)N[C@H]2CCOc3ccccc32)ncc2c(-c3cc(Cl)cc(Cl)c3)cccc12` [Example 2.1, N-[(4S)-chroman-4-yl]-8-(3,5-dichlorophenyl)-4-(dimethylamino) isoquinoline-3-carboxamide], the concentration for a half-maximal effect (EC50) is under 0.1 µg/mL in test [1] and under 1 µg/mL in test [2].

Take `CN(C)c1c(C(=O)N[C@H]2CCOc3ccccc32)ncc2c(-c3cc(Cl)cc(Cl)c3)nccc12` [Example 3.1, N-[(4S)-chroman-4-yl]-8-(3,5-dichlorophenyl)-4-(dimethylamino)-2,7-naphthyridine-3-carboxamide]: in test [2], the EC50 was under 1 µg/mL. Turning to `CN(C)c1c(C(=O)N[C@H]2CCOc3ccccc32)ccc2c(-c3cc(Cl)cc(Cl)c3)nccc12` [Example 4.1, N-[(4S)-chroman-4-yl]-1-(3,5-dichlorophenyl)-5-(dimethylamino)isoquinoline-6-carboxamide], the EC50 was under 0.1 µg/mL in test [1] and under 1 µg/mL in test [2]. Regarding `CN(C)c1c(C(=O)N[C@H]2CCOc3ccccc32)ccc2c(-c3cc(Cl)cc(Cl)c3)cccc12` [Example 5.1], the results for the EC50 in test [1] and in test [2] were under 0.1 µg/mL and under 1 µg/mL, respectively. Consider `CN(C)c1c(C(=O)N[C@H]2CCOc3ccccc32)ccc2c(-c3cc(Cl)cc(Cl)c3)ccnc12` [Example 6.1, N-[(4S)-Chroman-4-yl]-4-(3,5-dichlorophenyl)-8-(dimethylamino)quinoline-7-carboxamide], for which the EC50 in test [1] is under 0.1 µg/mL; in test [2], under 1 µg/mL. Consider `CN(C)c1c(C(=O)N[C@H]2CCOc3ccccc32)ccc2c(-c3cc(Cl)cc(Cl)c3)cncc12` [Example 7.1, N-[(4S)-Chroman-4-yl]-4-(3,5-dichlorophenyl)-8-(dimethylamino)isoquinoline-7-carboxamide], for which the EC50 in test [1] is under 0.1 µg/mL; in test [2], under 1 µg/mL.

As usually defined, the EC50 is the concentration needed to bring the measured effect to its halfway point.
